Laboratory results from US9708314B2, “Heterocyclic amide compound” (NISSAN CHEMICAL INDUSTRIES, LTD., priority 2013, dated 2017).

Tests used:
Type in all cases: in vivo
[1] = test system: Glycine max; test: Test Example 4: effect on crop by application to foliage (diluvial soil, plastic box); conditions: application to foliage, application herbicide amount 320 g/ha
How it was run: (§1)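 Greenhouse plants (25° C. to 30° C., 14 d, diluvial soil) receive a foliar spray of water-diluted emulsifiable formulation at defined g/ha. Grading after 3 weeks uses a six-step herbicidal-ratio scale, with 4 covering 70% to <90% and 1 covering 5% to <20%.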

[2] = test system: Brassica campestris L.; test: as above; conditions: application to foliage, application herbicide amount 320 g/ha
How it was run: as §1

[3] = test system: directly sowed Oryza sativa; test: as above; conditions: application to foliage, application herbicide amount 320 g/ha
How it was run: as §1

[4] = test system: Triticum aestivum; test: as above; conditions: application to foliage, application herbicide amount 320 g/ha
How it was run: as §1

[5] = test system: Beta vulgaris ssp. vulgaris; test: as above; conditions: application to foliage, application herbicide amount 320 g/ha
How it was run: as §1

[6] = test system: Zea mays; test: as above; conditions: application to foliage, application herbicide amount 320 g/ha
How it was run: as §1

[7] = test system: Monochoria vaginalis; test: Test Example 2: herbicidal activity, application during weed generation in submerged conditions; conditions: Eighteenth Table; application herbicide amount 320 g/ha
How it was run: (§2)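 Seeds were sown together in alluvial soil kept under 4 cm of water and grown at 25 °C to 30 °C. Once plants reached the one- to two-leaf stage, the diluted emulsion was applied to the water surface at a predetermined g/ha amount, and effects were rated 0–5 after three weeks.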

[8] = test system: Scirpus juncoides; test: as above; conditions: Eighteenth Table; application herbicide amount 320 g/ha
How it was run: as §2

[9] = test system: Echinochloa oryzacola Vasing.; test: as above; conditions: Eighteenth Table; application herbicide amount 320 g/ha
How it was run: as §2

[10] = test system: Echinochloa crus-galli var. crus-galli; test: Test Example 4: herbicidal effect by application to foliage (diluvial soil, plastic box); conditions: application to foliage, application herbicide amount 320 g/ha
How it was run: as §1

[11] = test system: Avena fatua; test: as above; conditions: application to foliage, application herbicide amount 320 g/ha
How it was run: as §1

[12] = test system: Veronica persica; test: as above; conditions: application to foliage, application herbicide amount 320 g/ha
How it was run: as §1

[13] = test system: Apera spica-venti.; test: as above; conditions: application to foliage, application herbicide amount 320 g/ha
How it was run: as §1

[14] = test system: Abutilon theophrasti; test: as above; conditions: application to foliage, application herbicide amount 320 g/ha
How it was run: as §1

[15] = test system: Alopecurus myosuroides; test: as above; conditions: application to foliage, application herbicide amount 320 g/ha
How it was run: as §1

[16] = test system: Lolium multiflorum Lam.; test: as above; conditions: application to foliage, application herbicide amount 320 g/ha
How it was run: as §1

[17] = test system: Setaria viridis; test: as above; conditions: application to foliage, application herbicide amount 320 g/ha
How it was run: as §1

[18] = test system: Chenopodium album; test: as above; conditions: application to foliage, application herbicide amount 320 g/ha
How it was run: as §1

Row | SMILES | c (Glycine max) effect on crop [1] | g (Brassica campestris L.) effect on crop [2] | d (directly sowed Oryza sativa) effect on crop [3] | e (Triticum aestivum) effect on crop [4] | f (Beta vulgaris ssp. vulgaris) effect on crop [5] | b (Zea mays) effect on crop [6] | C (Monochoria vaginalis) herbicidal ratio grade [7] | B (Scirpus juncoides) herbicidal ratio grade [8] | A (Echinochloa oryzicola Vasing.) herbicidal ratio grade [9] | H (Echinochloa crus-galli var. crus-galli) herbicidal effect [10] | I (Avena fatua) herbicidal effect [11] | R (Veronica persica) herbicidal effect [12] | L (Apera spica-venti.) herbicidal effect [13] | M (Abutilon theophrasti) herbicidal effect [14] | J (Alopecurus myosuroides) herbicidal effect [15] | K (Lolium multiflorum Lam.) herbicidal effect [16] | G (Setaria viridis) herbicidal effect [17] | O (Chenopodium album) herbicidal effect [18]
1 | Cc1nnc(NC(=O)c2ccc(C(F)(F)F)n3c(C(C)C)nnc23)o1 [1-004, 3-Isopropyl-N-(5-methyl-1,3,4-oxadiazol-2-yl)-5-(trifluoromethyl)-[1,2,4]triazolo[4,3-a]pyridine-8-carboxamide] | 4 (Herbicidal ratio of 70% or more and less than 90%) | 3 (Herbicidal ratio of 40% or more and less than 70%) | 4 (Herbicidal ratio of 70% or more and less than 90%) | 2 (Herbicidal ratio of 20% or more and less than 40%) | 4 (Herbicidal ratio of 70% or more and less than 90%) | 0 (Herbicidal ratio of 5% or less (almost no effect)) | 4 (Herbicidal ratio of 70% or more and less than 90%) | 3 (Herbicidal ratio of 40% or more and less than 70%) | 4 (Herbicidal ratio of 70% or more and less than 90%) | 5 (Herbicidal ratio of 90% or more (almost completely withered)) | 2 (Herbicidal ratio of 20% or more and less than 40%) | 4 (Herbicidal ratio of 70% or more and less than 90%) | 3 (Herbicidal ratio of 40% or more and less than 70%) | 4 (Herbicidal ratio of 70% or more and less than 90%) | 2 (Herbicidal ratio of 20% or more and less than 40%) | 2 (Herbicidal ratio of 20% or more and less than 40%) | 4 (Herbicidal ratio of 70% or more and less than 90%) | 5 (Herbicidal ratio of 90% or more (almost completely withered))
2 | CCc1nnc(NC(=O)c2ccc(C(F)(F)F)n3c(C(C)C)nnc23)o1 [1-005] | 1 (Herbicidal ratio of 5% or more and less than 20%) | 0 (Herbicidal ratio of 5% or less (almost no effect)) | 0 (Herbicidal ratio of 5% or less (almost no effect)) | 0 (Herbicidal ratio of 5% or less (almost no effect)) | 0 (Herbicidal ratio of 5% or less (almost no effect)) | 0 (Herbicidal ratio of 5% or less (almost no effect)) | 0 (Herbicidal ratio of 5% or less (almost no effect)) | 1 (Herbicidal ratio of 5% or more and less than 20%) | 5 (Herbicidal ratio of 90% or more (almost completely withered)) | 4 (Herbicidal ratio of 70% or more and less than 90%) | 1 (Herbicidal ratio of 5% or more and less than 20%) | 3 (Herbicidal ratio of 40% or more and less than 70%) | 0 (Herbicidal ratio of 5% or less (almost no effect)) | 4 (Herbicidal ratio of 70% or more and less than 90%) | 0 (Herbicidal ratio of 5% or less (almost no effect)) | 0 (Herbicidal ratio of 5% or less (almost no effect)) | 3 (Herbicidal ratio of 40% or more and less than 70%) | 5 (Herbicidal ratio of 90% or more (almost completely withered))
3 | Cc1nnc(NC(=O)c2ccc(C(F)(F)F)n3c(C4CC4)nnc23)o1 [1-010] | 1 (Herbicidal ratio of 5% or more and less than 20%) | 3 (Herbicidal ratio of 40% or more and less than 70%) | 4 (Herbicidal ratio of 70% or more and less than 90%) | 1 (Herbicidal ratio of 5% or more and less than 20%) | 5 (Herbicidal ratio of 90% or more (almost completely withered)) | 0 (Herbicidal ratio of 5% or less (almost no effect)) | 4 (Herbicidal ratio of 70% or more and less than 90%) | 1 (Herbicidal ratio of 5% or more and less than 20%) | 4 (Herbicidal ratio of 70% or more and less than 90%) | 4 (Herbicidal ratio of 70% or more and less than 90%) | 3 (Herbicidal ratio of 40% or more and less than 70%) | 5 (Herbicidal ratio of 90% or more (almost completely withered)) | 2 (Herbicidal ratio of 20% or more and less than 40%) | 5 (Herbicidal ratio of 90% or more (almost completely withered)) | 2 (Herbicidal ratio of 20% or more and less than 40%) | 1 (Herbicidal ratio of 5% or more and less than 20%) | 3 (Herbicidal ratio of 40% or more and less than 70%) | 5 (Herbicidal ratio of 90% or more (almost completely withered))
4 | CCC(CC)c1nnc2c(C(=O)Nc3nnc(C)o3)ccc(C(F)(F)F)n12 [1-011] | 3 (Herbicidal ratio of 40% or more and less than 70%) | 3 (Herbicidal ratio of 40% or more and less than 70%) | 4 (Herbicidal ratio of 70% or more and less than 90%) | 0 (Herbicidal ratio of 5% or less (almost no effect)) | 5 (Herbicidal ratio of 90% or more (almost completely withered)) | 0 (Herbicidal ratio of 5% or less (almost no effect)) | 3 (Herbicidal ratio of 40% or more and less than 70%) | 3 (Herbicidal ratio of 40% or more and less than 70%) | 5 (Herbicidal ratio of 90% or more (almost completely withered)) | 5 (Herbicidal ratio of 90% or more (almost completely withered)) | 1 (Herbicidal ratio of 5% or more and less than 20%) | 5 (Herbicidal ratio of 90% or more (almost completely withered)) | 2 (Herbicidal ratio of 20% or more and less than 40%) | 5 (Herbicidal ratio of 90% or more (almost completely withered)) | 1 (Herbicidal ratio of 5% or more and less than 20%) | 1 (Herbicidal ratio of 5% or more and less than 20%) | 4 (Herbicidal ratio of 70% or more and less than 90%) | 5 (Herbicidal ratio of 90% or more (almost completely withered))
5 | Cc1nnc(NC(=O)c2ccc(C(F)(F)F)n3c(-c4ccccc4)nnc23)o1 [1-012] | 1 (Herbicidal ratio of 5% or more and less than 20%) | 4 (Herbicidal ratio of 70% or more and less than 90%) | 2 (Herbicidal ratio of 20% or more and less than 40%) | 0 (Herbicidal ratio of 5% or less (almost no effect)) | 3 (Herbicidal ratio of 40% or more and less than 70%) | 0 (Herbicidal ratio of 5% or less (almost no effect)) | 2 (Herbicidal ratio of 20% or more and less than 40%) | 2 (Herbicidal ratio of 20% or more and less than 40%) | 2 (Herbicidal ratio of 20% or more and less than 40%) | 4 (Herbicidal ratio of 70% or more and less than 90%) | 0 (Herbicidal ratio of 5% or less (almost no effect)) | 4 (Herbicidal ratio of 70% or more and less than 90%) | 1 (Herbicidal ratio of 5% or more and less than 20%) | 3 (Herbicidal ratio of 40% or more and less than 70%) | 0 (Herbicidal ratio of 5% or less (almost no effect)) | 1 (Herbicidal ratio of 5% or more and less than 20%) | 4 (Herbicidal ratio of 70% or more and less than 90%) | 5 (Herbicidal ratio of 90% or more (almost completely withered))
